Measured values from patent publication US9346815B2, “5-chloro-2-difluoromethoxyphenyl pyrazolopyrimidine compounds, compositions and methods of use thereof” (Genentech, Inc., priority 2014, dated 2016).

Key:
[1] = target: isolated recombinant JAK1 kinase domain (Homo sapiens (Human), UniProt P23458); test: JAK1 enzyme assay (Caliper LabChip, peptide phosphorylation); assay type: biochemical; settings: isolated recombinant JAK1 kinase domain, 25 μM ATP
[2] = target: isolated recombinant JAK2 kinase domain (Homo sapiens (Human), UniProt O60674); test: JAK2 enzyme assay (Caliper LabChip, peptide phosphorylation); assay type: biochemical; settings: 25 μM ATP
Sequence of isolated recombinant JAK2 kinase domain (O60674 849-1124): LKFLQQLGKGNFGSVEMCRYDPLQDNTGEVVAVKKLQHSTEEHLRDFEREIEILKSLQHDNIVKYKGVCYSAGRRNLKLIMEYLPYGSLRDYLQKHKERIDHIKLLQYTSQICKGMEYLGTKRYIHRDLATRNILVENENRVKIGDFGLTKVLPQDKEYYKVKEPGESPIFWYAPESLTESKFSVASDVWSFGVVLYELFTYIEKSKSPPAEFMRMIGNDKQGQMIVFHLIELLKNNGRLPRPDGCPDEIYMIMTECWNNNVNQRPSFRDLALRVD

[3] = tested on: JAK1-dependent STAT6 phosphorylation downstream of IL-13 stimulation in TF-1 human erythroleukemia cells; test: JAK1 pathway assay in TF-1 cells (IL-13-pSTAT6, MSD); assay type: cell-based; settings: Homo sapiens, TF-1, TF-1 cells, read-out: IL13-pSTAT6 EC50_TF-1
Method: JAK1 Pathway Assay in Cell Lines was Carried Out as Follows:
Inhibitor potency (EC50) was determined in cell-based assays designed to measure JAK1 dependent STAT phosphorylation.
In one assay approach, TF-1 human erythroleukemia cells obtained from the American Type Culture Collection (ATCC; Manassas, Va.) were used to measure JAK1-dependent STAT6 phosphorylation downstream of IL-13 stimulation. Prior to use in the assays, TF-1 cells were starved of GM-CSF overnight in OptiMEM medium (Life Technologies, Grand Island, N.Y.) supplemented with 0.5% charcoal/dextran stripped fetal bovine serum (FBS), 0.1 mM non-essential amino acids (NEAA), and 1 mM sodium pyruvate. The assays were run in 384-well plates in serum-free OptiMEM medium using 300,000 cells per well. In a second assay approach, BEAS-2B human bronchial epithelial cells obtained from ATCC were plated at 100,000 cells per well of a 96-well plate one day prior to the experiment. The BEAS-2B assay was run in complete growth medium (bronchial epithelial basal medium plus bulletkit; Lonza; Basel, Switzerland).
Test compounds were serially diluted 1:2 in DMSO and then diluted 1:50 in medium just before use. Diluted compounds were added to the cells, for a final DMSO concentration of 0.2%, and incubated for 30 min (for the TF-1 assay) or 1 hr (for the BEAS-2B assay) at 37° C. Then, cells were stimulated with human recombinant cytokine at their respective EC90 concentrations, as previously determined for each individual lot. Cells were stimulated with IL-13 (R&D Systems, Minneapolis, Minn.) for 15 min at 37° C. The TF-1 cell reactions were stopped by the direct addition of 10× lysis buffer (Cell Signaling Technologies, Danvers, Mass.), whereas the BEAS-2B cell incubations were halted by the removal of medium and addition of 1× lysis buffer. The resultant samples were frozen in the plates at −80° C. Compound mediated inhibition of STAT6 phosphorylation was measured in the cell lysates using MesoScale Discovery (MSD) technology (Gaithersburg, Md.).

Sequence of isolated recombinant JAK1 kinase domain (P23458 875-1153): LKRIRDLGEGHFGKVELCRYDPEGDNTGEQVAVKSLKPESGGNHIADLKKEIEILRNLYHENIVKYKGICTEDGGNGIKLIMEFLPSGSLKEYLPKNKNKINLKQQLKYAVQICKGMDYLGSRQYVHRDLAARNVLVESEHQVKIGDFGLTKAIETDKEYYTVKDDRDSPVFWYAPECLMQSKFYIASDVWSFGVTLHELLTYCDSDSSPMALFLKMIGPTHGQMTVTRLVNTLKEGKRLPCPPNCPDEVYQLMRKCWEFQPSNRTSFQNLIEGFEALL

Row | Structure (SMILES) | Ki [1] | Ki [2] | EC50 [3]
1 | CCOC(=O)N1CCC(CN2C[C@@H]3CN(C(=O)Cn4cc(NC(=O)c5cnn6cccnc56)c(-c5cc(Cl)ccc5OC(F)F)n4)C[C@@H]3C2)CC1 [Example 23, ethyl 4-[[(3aS,6aR)-5-[2-[3-[5-chloro-2-(difluoromethoxy)phenyl]-4-(pyrazolo[1,5-a]pyrimidine-3-carbonylamino)pyrazol-1-yl]acetyl]-1,3,3a,4,6,6a-hexahydropyrrolo[3,4-c]pyrrol-2-yl]methyl]piperidine-1-carboxylate] | 0.7 nM | 0.81 nM | 8.6 nM
2 | CN1CCC2CN(C(=O)Cn3cc(NC(=O)c4cnn5cccnc45)c(-c4cc(Cl)ccc4OC(F)F)n3)CCC21 (stereo not drawn) [Example 29, N-[3-[5-chloro-2-(difluoromethoxy)phenyl]-1-[2-(1-methyl-3,3a,4,6,7,7a-hexahydro-2H-pyrrolo[3,2-c]pyridin-5-yl)-2-oxo-ethyl]pyrazol-4-yl]pyrazolo[1,5-a]pyrimidine-3-carboxamide] | 1.01 nM | 1.76 nM | 5.6 nM
3 | CS(=O)(=O)CCN1C[C@@H]2CN(C(=O)Cn3cc(NC(=O)c4cnn5cccnc45)c(-c4cc(Cl)ccc4OC(F)F)n3)C[C@@H]2C1 [Example 31, N-[1-[2-[(3aS,6aR)-2-(2-methylsulfonylethyl)-1,3,3a,4,6,6a-hexahydropyrrolo[3,4-c]pyrrol-5-yl]-2-oxo-ethyl]-3-[5-chloro-2-(difluoromethoxy)phenyl]pyrazol-4-yl]pyrazolo[1,5-a]pyrimidine-3-carboxamide] | 0.37 nM | 0.53 nM | 102 nM
4 | O=C(Nc1cn(CC(=O)N2C[C@H]3CN(CCCN4CCOC4=O)C[C@H]3C2)nc1-c1cc(Cl)ccc1OC(F)F)c1cnn2cccnc12 [Example 32, N-[1-[2-[(3aS,6aR)-2-[3-(2-oxooxazolidin-3-yl)propyl]-1,3,3a,4,6,6a-hexahydropyrrolo[3,4-c]pyrrol-5-yl]-2-oxo-ethyl]-3-[5-chloro-2-(difluoromethoxy)phenyl]pyrazol-4-yl]pyrazolo[1,5-a]pyrimidine-3-carboxamide] | 0.46 nM | 0.5 nM | 98.5 nM
5 | CN1C[C@@H]2[C@H](C1)[C@H](CO)N(C(=O)Cn1cc(NC(=O)c3cnn4cccnc34)c(-c3cc(Cl)ccc3OC(F)F)n1)[C@@H]2c1ccccc1 [Example 37, N-[1-[2-[(3aS,4S,6R,6aR)-6-(hydroxymethyl)-2-methyl-4-phenyl-1,3,3a,4,6,6a-hexahydropyrrolo[3,4-c]pyrrol-5-yl]-2-oxo-ethyl]-3-[5-chloro-2-(difluoromethoxy)phenyl]pyrazol-4-yl]pyrazolo[1,5-a]pyrimidine-3-carboxamide] | 1.1 nM | 0.78 nM | 11.8 nM
6 | CC1(CN2C[C@@H]3CN(C(=O)Cn4cc(NC(=O)c5cnn6cccnc56)c(-c5cc(Cl)ccc5OC(F)F)n4)C[C@@H]3C2)COC1 [Example 39, N-[1-[2-[(3aR,6aS)-2-[(3-methyloxetan-3-yl)methyl]-1,3,3a,4,6,6a-hexahydropyrrolo[3,4-c]pyrrol-5-yl]-2-oxo-ethyl]-3-[5-chloro-2-(difluoromethoxy)phenyl]pyrazol-4-yl]pyrazolo[1,5-a]pyrimidine-3-carboxamide] | 0.55 nM | 0.87 nM | 6.6 nM
7 | CN1CC[C@H]2CN(C(=O)Cn3cc(NC(=O)c4cnn5cccnc45)c(-c4cc(Cl)ccc4OC(F)F)n3)CC[C@H]21 [Example 42, N-[1-[2-[(3aS,7aR)-1-methyl-3,3a,4,6,7,7a-hexahydro-2H-pyrrolo[3,2-c]pyridin-5-yl]-2-oxo-ethyl]-3-[5-chloro-2-(difluoromethoxy)phenyl]pyrazol-4-yl]pyrazolo[1,5-a]pyrimidine-3-carboxamide] | 0.69 nM | 0.67 nM | 3.1 nM
8 | CN1C[C@H]2CN(C(=O)Cn3cc(NC(=O)c4cnn5cccnc45)c(-c4cc(Cl)ccc4OC(F)F)n3)C[C@@]2(c2ccccc2)C1 [Example 43, N-[1-[2-[(3aS,6aS)-2-methyl-3a-phenyl-3,4,6,6a-tetrahydro-1H-pyrrolo[3,4-c]pyrrol-5-yl]-2-oxo-ethyl]-3-[5-chloro-2-(difluoromethoxy)phenyl]pyrazol-4-yl]pyrazolo[1,5-a]pyrimidine-3-carboxamide] | 0.66 nM | 0.36 nM | 15 nM

Continued by falling Ki [1], values first:

Row | Ki [1] | Ki [2] | EC50 [3] | Structure (SMILES)
9 | 0.94 nM | 0.95 nM | 158 nM | CC(=O)N1CCC(CN2C[C@@H]3CN(C(=O)Cn4cc(NC(=O)c5cnn6cccnc56)c(-c5cc(Cl)ccc5OC(F)F)n4)C[C@@H]3C2)CC1 [Example 22, N-[1-[2-[(3aS,6aR)-2-[(1-acetyl-4-piperidyl)methyl]-1,3,3a,4,6,6a-hexahydropyrrolo[3,4-c]pyrrol-5-yl]-2-oxo-ethyl]-3-[5-chloro-2-(difluoromethoxy)phenyl]pyrazol-4-yl]pyrazolo[1,5-a]pyrimidine-3-carboxamide]
10 | 0.91 nM | 1.47 nM | 8 nM | CN1CC[C@@H]2CN(C(=O)Cn3cc(NC(=O)c4cnn5cccnc45)c(-c4cc(Cl)ccc4OC(F)F)n3)CC[C@@H]21 [Example 41, N-[1-[2-[(3aR,7aS)-1-methyl-3,3a,4,6,7,7a-hexahydro-2H-pyrrolo[3,2-c]pyridin-5-yl]-2-oxo-ethyl]-3-[5-chloro-2-(difluoromethoxy)phenyl]pyrazol-4-yl]pyrazolo[1,5-a]pyrimidine-3-carboxamide]
11 | 0.88 nM | 0.78 nM | 8.5 nM | COCCCN1C[C@@H]2CN(C(=O)Cn3cc(NC(=O)c4cnn5cccnc45)c(-c4cc(Cl)ccc4OC(F)F)n3)C[C@@H]2C1 [Example 38, N-[1-[2-[(3aR,6aS)-2-(3-methoxypropyl)-1,3,3a,4,6,6a-hexahydropyrrolo[3,4-c]pyrrol-5-yl]-2-oxo-ethyl]-3-[5-chloro-2-(difluoromethoxy)phenyl]pyrazol-4-yl]pyrazolo[1,5-a]pyrimidine-3-carboxamide]
12 | 0.78 nM | 2.02 nM | 4.9 nM | CN1CC[C@@H]2[C@@H](CCN2C(=O)Cn2cc(NC(=O)c3cnn4cccnc34)c(-c3cc(Cl)ccc3OC(F)F)n2)C1 [Example 24, N-[1-[2-[(3aS,7aR)-5-methyl-3,3a,4,6,7,7a-hexahydro-2H-pyrrolo[3,2-c]pyridin-1-yl]-2-oxo-ethyl]-3-[5-chloro-2-(difluoromethoxy)phenyl]pyrazol-4-yl]pyrazolo[1,5-a]pyrimidine-3-carboxamide]
13 | 0.77 nM | 0.94 nM | 6.2 nM | O=C(Nc1cn(CC(=O)N2C[C@H]3CN(CC4CCOCC4)C[C@H]3C2)nc1-c1cc(Cl)ccc1OC(F)F)c1cnn2cccnc12 [Example 26, N-[1-[2-[(3aR,6aS)-2-(tetrahydropyran-4-ylmethyl)-1,3,3a,4,6,6a-hexahydropyrrolo[3,4-c]pyrrol-5-yl]-2-oxo-ethyl]-3-[5-chloro-2-(difluoromethoxy)phenyl]pyrazol-4-yl]pyrazolo[1,5-a]pyrimidine-3-carboxamide]
14 | 0.66 nM | 1.61 nM | 121 nM | CN1C[C@H]2CCN(C(=O)Cn3cc(NC(=O)c4cnn5cccnc45)c(-c4cc(Cl)ccc4OC(F)F)n3)C[C@H]2C1 [Example 25, N-[1-[2-[(3aR,7aS)-2-methyl-3,3a,4,6,7,7a-hexahydro-1H-pyrrolo[3,4-c]pyridin-5-yl]-2-oxo-ethyl]-3-[5-chloro-2-(difluoromethoxy)phenyl]pyrazol-4-yl]pyrazolo[1,5-a]pyrimidine-3-carboxamide]
15 | 0.51 nM | 0.73 nM | 235 nM | O=C(Nc1cn(CC(=O)N2C[C@H]3CN(CC4CCN(C(=O)C5CCOCC5)CC4)C[C@H]3C2)nc1-c1cc(Cl)ccc1OC(F)F)c1cnn2cccnc12 [Example 35, N-[1-[2-[(3aR,6aS)-2-[[1-(tetrahydropyran-4-carbonyl)-4-piperidyl]methyl]-1,3,3a,4,6,6a-hexahydropyrrolo[3,4-c]pyrrol-5-yl]-2-oxo-ethyl]-3-[5-chloro-2-(difluoromethoxy)phenyl]pyrazol-4-yl]pyrazolo[1,5-a]pyrimidine-3-carboxamide]
16 | 0.46 nM | 0.55 nM | 144 nM | CS(=O)(=O)CCCN1C[C@@H]2CN(C(=O)Cn3cc(NC(=O)c4cnn5cccnc45)c(-c4cc(Cl)ccc4OC(F)F)n3)C[C@@H]2C1 [Example 27, N-[1-[2-[(3aS,6aR)-2-(3-methylsulfonylpropyl)-1,3,3a,4,6,6a-hexahydropyrrolo[3,4-c]pyrrol-5-yl]-2-oxo-ethyl]-3-[5-chloro-2-(difluoromethoxy)phenyl]pyrazol-4-yl]pyrazolo[1,5-a]pyrimidine-3-carboxamide]
